Laboratory results as given in patent US9961848B2, “Soybean event 127 and methods related thereto” (EMPRESA BRASILEIRA DE PESQUISA AGROPECUARIA—EMBRAPA, priority 2009, dated 2018).

Assays:
Format in all cases: in vivo
[1] = system: EPHHL = Euphorbia heterophylla; assay: Field weed control, burn down application; details: burn down 5 days before planting, g ai/ha Glyphosate 1080, Imazapic 70, Imazapic + imazapyr 70
Text: (§3) All the procedures from planting to harvest were the same for all three locations. The herbicides were applied at burn down five days before the soybean planting.
(§4) A completely randomized block design with three replications was used.
(§5) Imidazolinone-tolerant soybean derived from event 127 was planted 5 cm deep at population of 380,000 seeds/ha in 50 cm row spacing. The imidazolinones herbicides were applied with a nonionic adjuvant, Dash, at 0.25% v/v. A CO^2 backpack sprayer with 80015 low pressure nozzles delivering 170 l/ha at 190 kpa was used for all herbicide applications (Table 18).
(§6) Crop injury was assessed 15 and 30 days after planting (DAP) based on a 0 to 100 scale where 0 is no injury and 100 is crop death. Herbicide efficacy was assessed at 15, 30 and 60 DAP based on a 0 to 100 scale, where 0 is no control and 100 is total control.

[2] = system: CYPRO = Cyperus rotundus; assay: Field weed control, burn down application; details: burn down 5 days before planting, g ai/ha Glyphosate 1080, Imazapic 70, Imazapic + imazapyr 70
Text: as §3, §4, §5, §6

[3] = system: COMBE = Commelina benghalensis; assay: Field weed control, burn down application; details: burn down 5 days before planting, g ai/ha Glyphosate 1080, Imazapic 70, Imazapic + imazapyr 70
Text: as §3, §4, §5, §6

[4] = system: glyphosate resistant horseweed; assay: Greenhouse injury rate, preemergence application; details: 25 DAT
Procedure: (§1) Greenhouse studies were conducted to determine whether imidazolinone herbicides could be used in the control of undesired glyphosate tolerant weeds and crops growing in a cultivated area. […] Plants were maintained in a greenhouse with overhead watering.
(§2) Postemergence sprays were conducted at the 2-true leaf stage for corn and soybean and at the 9-true leaf stage for horseweed. […] The percent overall injury rate was visually determined 14 days after treatment (DAT) and 25 days after treatment (DAT). […] The results of the postemergence tests are summarized in Table 20 and the results of the pre-emergence study are summarized in Table 21. Results are provided as averages of the 5 individual plants.

[5] = system: glyphosate resistant corn; assay: Greenhouse injury rate, preemergence application; details: 14 DAT
Procedure: as §1, §2

[6] = system: glyphosate resistant soybean; assay: Greenhouse injury rate, preemergence application; details: 14 DAT
Procedure: as §1, §2

[7] = system: GASPA = Galinsoga parviflora; assay: Field weed control, burn down application; details: burn down 5 days before planting, g ai/ha Glyphosate 1080, Imazapic 70, Imazapic + imazapyr 70
Text: as §3, §4, §5, §6

[8] = system: BRAPL = Brachiaria plantaginea; assay: Field weed control, burn down application; details: burn down 5 days before planting, g ai/ha Glyphosate 1080, Imazapic 70, Imazapic + imazapyr 70
Text: as §3, §4, §5, §6

[9] = system: DIGHO = Digitaria horizontalis; assay: Field weed control, burn down application; details: burn down 5 days before planting, g ai/ha Glyphosate 1080, Imazapic 70, Imazapic + imazapyr 70
Text: as §3, §4, §5, §6

[10] = system: glyphosate resistant horseweed; assay: Greenhouse injury rate, postemergence application
Procedure: as §1, §2

[11] = system: glyphosate resistant corn; assay: Greenhouse injury rate, postemergence application; details: 14 DAT
Procedure: as §1, §2

[12] = system: glyphosate resistant soybean; assay: Greenhouse injury rate, postemergence application; details: 14 DAT
Procedure: as §1, §2

[13] = system: BIDPI = Bidens pilosa; assay: Field weed control, burn down application; details: burn down 5 days before planting, g ai/ha Glyphosate 1080, Imazapic 70, Imazapic + imazapyr 70
Text: as §3, §4, §5, §6

[14] = system: IPOGR = Ipomoea grandifolia; assay: Field weed control, burn down application; details: burn down 5 days before planting, g ai/ha Glyphosate 1080, Imazapic 70, Imazapic + imazapyr 70
Text: as §3, §4, §5, §6

[15] = system: IPOGR = Ipomoea grandifolia; assay: Field weed control, early post-emergence application; details: gai/ha Imazapyr 72, Imazapyr + imazapic 70, Glyphosate 540
[16] = system: EPHHL = Euphorbia heterophylla; assay: as above; details: gai/ha Imazapyr 72, Imazapyr + imazapic 70, Glyphosate 540
[17] = system: BOILF = Spermacoce latifolia; assay: as above; details: gai/ha Imazapyr 72, Imazapyr + imazapic 70, Glyphosate 540
[18] = system: RCHBR = Richardia brasiliensis; assay: as above; details: gai/ha Imazapyr 72, Imazapyr + imazapic 70, Glyphosate 540
[19] = system: COMBE = Commelina benghalensis; assay: as above; details: gai/ha Imazapyr 72, Imazapyr + imazapic 70, Glyphosate 540
[20] = system: SIDRH = Sida rombifolia; assay: as above; details: gai/ha Imazapyr 72, Imazapyr + imazapic 70, Glyphosate 540
[21] = system: CYPRO = Cyperus rotundus; assay: as above; details: gai/ha Imazapyr 72, Imazapyr + imazapic 70, Glyphosate 540

SMILES: Cc1cnc(C2=NC(=O)C(C)(C(C)C)N2)c(C(=O)O)c1 (centres unmarked) [Imazapic, imazapic]
- Efficacy (%) ([1]; 30 DAT): 98%
- Efficacy (%) ([1]; 60 DAT): 86%
- Efficacy (%) ([2]; 30 DAT): 88%
- Efficacy (%) ([2]; 60 DAT): 76%
- Efficacy (%) ([3]; 30 DAT): 75%
- Efficacy (%) ([3]; 60 DAT): 64%
- Average Overall Injury (%) ([4]; 20 g ai/ha): 65%
- Average Overall Injury (%) ([4]; 40 g ai/ha): 90%
- Average Overall Injury (%) ([4]; 80 g ai/ha): 99%
- Average Overall Injury (%) ([4]; 160 g ai/ha): 99%
- Average Overall Injury (%) ([4]; 240 g ai/ha): 99%
- Average Overall Injury (%) ([5]; 20 g ai/ha): 32%
- Average Overall Injury (%) ([5]; 40 g ai/ha): 38%
- Average Overall Injury (%) ([5]; 80 g ai/ha): 67%
- Average Overall Injury (%) ([5]; 160 g ai/ha): 86%
- Average Overall Injury (%) ([5]; 240 g ai/ha): 90%
- Average Overall Injury (%) ([6]; 20 g ai/ha): 12%
- Average Overall Injury (%) ([6]; 40 g ai/ha): 39%
- Average Overall Injury (%) ([6]; 80 g ai/ha): 60%
- Average Overall Injury (%) ([6]; 160 g ai/ha): 70%
- Average Overall Injury (%) ([6]; 240 g ai/ha): 81%
- Efficacy (%) ([7]; 30 DAT): 84%
- Efficacy (%) ([7]; 60 DAT): 78%
- Efficacy (%) ([8]; 30 DAT): 85%
- Efficacy (%) ([8]; 60 DAT): 79%
- Efficacy (%) ([9]; 30 DAT): 95%
- Efficacy (%) ([9]; 60 DAT): 86%
- Average Overall Injury (%) ([10]; 14 DAT, 20 g ai/ha): 56%
- Average Overall Injury (%) ([10]; 14 DAT, 40 g ai/ha): 59%
- Average Overall Injury (%) ([10]; 14 DAT, 80 g ai/ha): 80%
- Average Overall Injury (%) ([10]; 14 DAT, 160 g ai/ha): 92%
- Average Overall Injury (%) ([10]; 14 DAT, 240 g ai/ha): 94%
- Average Overall Injury (%) ([10]; 25 DAT, 20 g ai/ha): 27%
- Average Overall Injury (%) ([10]; 25 DAT, 40 g ai/ha): 28%
- Average Overall Injury (%) ([10]; 25 DAT, 80 g ai/ha): 69%
- Average Overall Injury (%) ([10]; 25 DAT, 160 g ai/ha): 77%
- Average Overall Injury (%) ([10]; 25 DAT, 240 g ai/ha): 88%
- Average Overall Injury (%) ([11]; 20 g ai/ha): 83%
- Average Overall Injury (%) ([11]; 40 g ai/ha): 87%
- Average Overall Injury (%) ([11]; 80 g ai/ha): 93%
- Average Overall Injury (%) ([11]; 160 g ai/ha): 99%
- Average Overall Injury (%) ([11]; 240 g ai/ha): 99%
- Average Overall Injury (%) ([12]; 20 g ai/ha): 35%
- Average Overall Injury (%) ([12]; 40 g ai/ha): 61%
- Average Overall Injury (%) ([12]; 80 g ai/ha): 71%
- Average Overall Injury (%) ([12]; 160 g ai/ha): 87%
- Average Overall Injury (%) ([12]; 240 g ai/ha): 96%
- Efficacy (%) ([13]; 30 DAT): 79%
- Efficacy (%) ([13]; 60 DAT): 73%
- Efficacy (%) ([14]; 30 DAT): 75%
- Efficacy (%) ([14]; 60 DAT): 73%

SMILES: CC(C)C1(C)N=C(c2ncccc2C(=O)O)NC1=O (centres unmarked) [imazapyr]
- Efficacy ([15]; 15 DAT): 96%
- Efficacy ([15]; 30 DAT): 91%
- Efficacy ([15]; 60 DAT): 85%
- Efficacy ([16]; 15 DAT): 92%
- Efficacy ([16]; 30 DAT): 85%
- Efficacy ([16]; 60 DAT): 83%
- Efficacy ([17]; 15 DAT): 88%
- Efficacy ([17]; 30 DAT): 83%
- Efficacy ([17]; 60 DAT): 75%
- Efficacy ([18]; 15 DAT): 86%
- Efficacy ([18]; 30 DAT): 83%
- Efficacy ([18]; 60 DAT): 77%
- Efficacy ([19]; 15 DAT): 93%
- Efficacy ([19]; 30 DAT): 87%
- Efficacy ([19]; 60 DAT): 80%
- Efficacy ([20]; 15 DAT): 94%
- Efficacy ([20]; 30 DAT): 87%
- Efficacy ([20]; 60 DAT): 81%
- Average Overall Injury (%) ([4]; 20 g ai/ha): 46%
- Average Overall Injury (%) ([4]; 40 g ai/ha): 63%
- Average Overall Injury (%) ([4]; 80 g ai/ha): 84%
- Average Overall Injury (%) ([4]; 120 g ai/ha): 96%
- Average Overall Injury (%) ([4]; 240 g ai/ha): 88%
- Average Overall Injury (%) ([5]; 20 g ai/ha): 37%
- Average Overall Injury (%) ([5]; 40 g ai/ha): 47%
- Average Overall Injury (%) ([5]; 80 g ai/ha): 65%
- Average Overall Injury (%) ([5]; 120 g ai/ha): 81%
- Average Overall Injury (%) ([5]; 240 g ai/ha): 91%
- Average Overall Injury (%) ([6]; 20 g ai/ha): 41%
- Average Overall Injury (%) ([6]; 40 g ai/ha): 43%
- Average Overall Injury (%) ([6]; 80 g ai/ha): 66%
- Average Overall Injury (%) ([6]; 120 g ai/ha): 83%
- Average Overall Injury (%) ([6]; 240 g ai/ha): 87%
- Efficacy ([21]; 15 DAT): 95%
- Efficacy ([21]; 30 DAT): 87%
- Efficacy ([21]; 60 DAT): 81%
- Average Overall Injury (%) ([10]; 14 DAT, 20 g ai/ha): 70%
- Average Overall Injury (%) ([10]; 14 DAT, 40 g ai/ha): 79%
- Average Overall Injury (%) ([10]; 14 DAT, 80 g ai/ha): 90%
- Average Overall Injury (%) ([10]; 14 DAT, 120 g ai/ha): 96%
- Average Overall Injury (%) ([10]; 14 DAT, 240 g ai/ha): 97%
- Average Overall Injury (%) ([10]; 25 DAT, 20 g ai/ha): 44%
- Average Overall Injury (%) ([10]; 25 DAT, 40 g ai/ha): 73%
- Average Overall Injury (%) ([10]; 25 DAT, 80 g ai/ha): 97%
- Average Overall Injury (%) ([10]; 25 DAT, 120 g ai/ha): 99%
- Average Overall Injury (%) ([10]; 25 DAT, 240 g ai/ha): 99%
- Average Overall Injury (%) ([11]; 20 g ai/ha): 96%
- Average Overall Injury (%) ([11]; 40 g ai/ha): 98%
- Average Overall Injury (%) ([11]; 80 g ai/ha): 99%
- Average Overall Injury (%) ([11]; 120 g ai/ha): 100%
- Average Overall Injury (%) ([11]; 240 g ai/ha): 100%
- Average Overall Injury (%) ([12]; 20 g ai/ha): 75%
- Average Overall Injury (%) ([12]; 40 g ai/ha): 96%
- Average Overall Injury (%) ([12]; 80 g ai/ha): 97%
- Average Overall Injury (%) ([12]; 120 g ai/ha): 98%
- Average Overall Injury (%) ([12]; 240 g ai/ha): 99%
